Measurements: patent publication US8309685B2 (Celgene Avilomics Research, Inc., priority 2007, dated 2012)

Legend:
[1] = test system: HCV RNA replicon in cell line ET (luc-ubi-neo/ET), human Huh7 hepatoma; assay: Method A: HCV RNA replicon antiviral assay (luciferase, ET cell line); format: cell-based, Hepatitis C virus; details: Hepatitis C virus, Huh-7, assay described in Example 22
Method in brief: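 ET replicon cells (Huh7 carrying luciferase-reporter HCV replicon) plated at 5×10^3 cells/well and exposed 72 hr to six 3-fold drug concentrations in DMEM/5% FBS. Replicon luciferase gave EC50/EC90; CytoTox-1 cell counts gave IC50 (viability); […]. Interferon alpha-2b served as positive control.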

[2] = target: T1, wild type HCV NS3/4A 1b protease enzyme (Hepatitis C virus genotype 1b, UniProt P26663); assay: HCV Protease FRET Assay (IC50_APP), wild type; format: biochemical
T1 construct: 10× stocks of NS3/4A protease enzyme from Bioenza (Mountain View, Calif.); purchased Bioenza (Mountain View, Calif.)

[3] = target: T2, A156T mutant of the HCV NS3/4A 1b protease enzyme (Hepatitis C virus genotype 1b, UniProt P26663, A1182T); assay: HCV Protease FRET Assay (IC50_APP), A156T mutant; format: biochemical; details: apparent IC50, A156T mutant; read-out: IC50_APP, HCV A156T
T2 construct: 10× stocks of NS3/4A protease enzyme from Bioenza (Mountain View, Calif.); purchased Bioenza (Mountain View, Calif.)

[4] = target: T3, D168A mutant of the HCV NS3/4A 1b protease enzyme (Hepatitis C virus genotype 1b, UniProt P26663, D1194A); assay: HCV Protease FRET Assay (IC50_APP), D168A mutant; format: biochemical; details: apparent IC50, D168A mutant; read-out: IC50_APP, HCV D168A
T3 construct: 10× stocks of NS3/4A protease enzyme from Bioenza (Mountain View, Calif.); purchased Bioenza (Mountain View, Calif.)

[5] = target: T4, NS3 protease self-cleavage in Huh-7-Luc-Neo-ET wild-type replicon cells (Hepatitis C virus genotype 1b, UniProt Q9WMX2, E1202G/T1280I); assay: Inhibition of protease self cleavage after compound removal, wild-type replicon cells; format: cell-based; details: up to 24 hours after compound removal
T4 construct: host or cells: Huh-7-Luc-Neo-ET (human Huh7 hepatoma cells carrying the replicon)
Description: Inhibition of Protease Self Cleavage
Huh-7-Luc-Neo-ET cells were plated in Replicon Assay Medium (RPMI supplemented with 5% FBS, 1× non-essential amino acids and pen/strep) at a density of 1×10^5 cells/well in 12 well plates. Eight hours later the media was removed and replaced with 1 ml media containing test compound (5 wells per compound) and 0.02% DMSO and the cells were returned to the incubator overnight. Sixteen hours later 1 well from each compound and 1 untreated well were washed with PBS, then lysed and scraped into 30 ul of Cell Extraction Buffer (Biosource, Camarillo, Calif.) plus Complete Protease Inhibitor (Roche, Indianapolis, Ind.). The remaining wells were rinsed 2× with PBS then fed with Replicon Media and returned to the incubator. […]
(§1) Cell lysates were separated by SDS-Page (4-20%) and transferred to Immobilon-P PVDF membrane (Millipore Corporation, Mass.) and blotted with polyclonal anti NS3 antibody (Bioenza, Calif.). Blots were scanned on an Odyssey infrared scanner from Licor and the FL band and cleavage products were quantified separately using the Licor software provided with the scanner. The cleavage product was calculated as a percentage of the total NS3 in each sample and then normalized to the DMSO control so that the DMSO control reflects 100% activity.

[6] = target: T5, NS3 protease with R155K mutation in modified replicon system (Hepatitis C virus genotype 1b, UniProt Q9WMX2, E1202G/R1181K/T1280I); assay: Inhibition of protease self cleavage after compound removal, R155K replicon system; format: cell-based
T5 construct: modified replicon system where the NS3 protease contains a clinically observed mutation; expressed in transfected cells; host or cells: Huh7-Lunet cells transfected with in vitro transcribed replicon RNA
Description: Constructs containing clinically relevant mutations were generated by performing site-directed mutagenesis on the pFK-I389-luc-ubi-neo-NS3-3′ET plasmid (ReBLikon Gmbh (Heidelberg, Germany)). using the QuickChange II Site-Directed Mutagenesis Kit (Stratagene, La Jolla, Calif.) according to manufacturer's directions and with the primers described in Table 7, below.
Huh-7-Luc-Neo-ET cells were plated in Replicon Assay Medium (RPMI supplemented with 5% FBS, 1× non-essential amino acids and pen/strep) at a density of 1×10^5 cells/well in 12 well plates. Eight hours later the media was removed and replaced with 1 ml media containing test compound (5 wells per compound) and 0.02% DMSO and the cells were returned to the incubator overnight. […]
as §1, with “activity. […]” for “activity.”

[7] = target: T6, C159S mutant of the HCV NS3/4A 1b protease enzyme (Hepatitis C virus genotype 1b, UniProt P26663, C1185S); assay: HCV Protease FRET Assay (IC50_APP), C159S mutant; format: biochemical; details: apparent IC50, C159S mutant
T6 construct: 10× stocks of NS3/4A protease enzyme from Bioenza (Mountain View, Calif.); purchased Bioenza (Mountain View, Calif.)
Description: HCV Protease FRET Assay for WT and Mutated NS3/4A 1b Enzymes (IC50—APP).
The following protocol was used to generate “apparent” IC50 (IC50—APP) values as depicted in Table 6, below. […] 5 μL of each enzyme were added to Corning (#3575) 384-well, black, microtiter plates (Corning, N.Y.) after spotting a 0.5 μL volume of 50% DMSO and serially diluted compounds prepared in 50% DMSO. Protease reactions were immediately started after enzyme addition with the addition of 45 μL of the FRET substrate and monitored for 60-90 minutes at λex485/λem520 in a Synergy^4 plate reader from BioTek (Winooski, Vt.). At the conclusion of each assay, progress curves from each well were examined for linear reaction kinetics and fit statistics (R^2, 95% confidence intervals, absolute sum of squares).
The compound numbers correspond to the compound numbers in Table 3. […] ;

[8] = target: T7, R155K mutant of the HCV NS3/4A 1b protease enzyme (Hepatitis C virus genotype 1b, UniProt P26663, R1181K); assay: HCV Protease FRET Assay (IC50_APP), R155K mutant; format: biochemical; details: apparent IC50, R155K mutant; read-out: IC50_APP, HCV R155K
T7 construct: 10× stocks of NS3/4A protease enzyme from Bioenza (Mountain View, Calif.); purchased Bioenza (Mountain View, Calif.)

[9] = target: T8, HCV NS3/4A wild type (genotype 1b) (Hepatitis C virus genotype 1b, UniProt P26663); assay: Mass spectrometric analysis (MALDI-TOF) of covalent modification, HCV wild type; format: binding; details: 10-fold excess of compound to protein, 3 hrs
T8 construct: mass spectroscopic analysis of HCV NS3/4A wild-type protease domain; purchased Bioenza Calif
Description: Mass spectrometric analysis of HCV wild type or HCV variant C159S in the presence of test compound was performed. 100 pmols of HCV wild type (Bioenza Calif.) was incubated with compound for 1 hr and 3 hrs at 10-fold access of […] to protein. 1 ul aliquots of the samples (total volume of 4.24 ul) were diluted with 10 ul of 0.1% TFA prior to micro C4 ZipTipping directly onto the MALDI target using Sinapinic acid as the desorption matrix (10 mg/ml in 01% TFA:Acetonitrile 50:50). Analyses were performed on a Shimadzu Biotech Axima TOF^2 (Shimadzu Instruments) matrix-assisted-laser desorption/ionization Time-of-Flight (MALDI-TOF) mass spectrometer. The same procedure was carried out on 100 pmols of HCV C159S mutant of HCV protease for 3 hrs at 10-fold excess of (I-3) to protein.
As depicted in FIGS. 2, 3, 4, and 5, mass spectrometric analysis of HCV wild type or HCV mutants in the presence of test compound (I-3) was performed. […] 1 ul aliquots of the samples were diluted with 10 ul of 0.1% TFA prior to micro C4 ZipTipping directly onto the MALDI target using Sinapinic acid as the desorption matrix (10 mg/ml in 0.1% TFA:Acetonitrile 50:50).
(§2) Mass spectrometric analysis of HCV wild type (genotype 1b) in the presence of test compounds I-73 and I-75 was performed using the following protocol: HCV NS3/4A wild type (wt) was incubated for 1 hr at a 10× fold access of test compound to protein. 2 ul aliquots of the samples were diluted with 10 ul of 0.1% TFA prior to micro C4 ZipTipping directly onto the MALDI target using Sinapinic acid as the desorption matrix (10 mg/ml in 0.1% TFA:Acetonitrile 50:50). For intact protein mass measurement the instrument was set in Linear mode using a pulsed extraction setting of 24,500 and apomyoglobin as the standard to calibrate the instrument.
Mass spectrometric analysis of HCV NS3/4A genotypes 1a, 1b, 2a, and 3a in the presence of test compound I-96 was performed using the following protocol: HCV NS3/4A was incubated for 3 hr at a 10× fold access of test compound to protein. […]

[10] = target: T9, HCV NS3/4A genotype 1a (Hepatitis C virus genotype 1a, UniProt P27958); assay: Mass spectrometric analysis of covalent modification, genotype 1a; format: binding; details: 10× excess of compound, 3 hr
T9 construct: Mass spectrometric analysis of HCV NS3/4A genotypes 1a, 1b, 2a, and 3a
Description: as §2, with “HCV NS3/4A genotypes 1a, 1b, 2a, and 3a” for “HCV wild type (genotype 1b)”, “test compound I-96” for “test compounds I-73 and I-75”, “NS3/4A” for “NS3/4A wild type (wt)”, “for 3” for “for 1”, “in 01%” for “in 0.1%”

[11] = target: T10, HCV NS3/4A genotype 2a (Hepatitis C virus genotype 2a, UniProt P26660); assay: Mass spectrometric analysis of covalent modification, genotype 2a; format: binding; details: 10× excess of compound, 3 hr
T10 construct: Mass spectrometric analysis of HCV NS3/4A genotypes 1a, 1b, 2a, and 3a
Description: as §2, with “HCV NS3/4A genotypes 1a, 1b, 2a, and 3a” for “HCV wild type (genotype 1b)”, “test compound I-96” for “test compounds I-73 and I-75”, “NS3/4A” for “NS3/4A wild type (wt)”, “for 3” for “for 1”, “in 01%” for “in 0.1%”

[12] = target: T11, HCV NS3/4A genotype 3a (Hepatitis C virus genotype 3a, UniProt Q81258); assay: Mass spectrometric analysis of covalent modification, genotype 3a; format: binding; details: 10× excess of compound, 3 hr
T11 construct: Mass spectrometric analysis of HCV NS3/4A genotypes 1a, 1b, 2a, and 3a
Description: as §2, with “HCV NS3/4A genotypes 1a, 1b, 2a, and 3a” for “HCV wild type (genotype 1b)”, “test compound I-96” for “test compounds I-73 and I-75”, “NS3/4A” for “NS3/4A wild type (wt)”, “for 3” for “for 1”, “in 01%” for “in 0.1%”

[13] = test system: HCV RNA replicon in cell line ET (luc-ubi-neo/ET), human Huh7 hepatoma; assay: Luciferase Assay (Example 35), replicon-derived luciferase activity; format: cell-based; details: Hepatitis C virus, Huh-7, assay described in Example 35
Method in brief: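 Huh7-derived ET cells carrying a luciferase-reporter HCV replicon, 5×10^3 cells/well, exposed 72 h to six 3-fold compound concentrations in DMEM with 5% FBS. Replicon luciferase gives EC50/EC90; Cell Titer Blue cell number gives cytotoxic IC50, with SI50 as their ratio. Interferon alpha-2b served as positive control.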

C=CC(=O)N[C@H](C)C(=O)N1C[C@H](Oc2cc(-c3ccccc3)nc3cc(OC)ccc23)C[C@H]1C(=O)N[C@]1(C(=O)NS(=O)(=O)C2CC2)C[C@H]1C=C [Compound I-54, (2S,4R)-1-((R)-2-acrylamidopropanoyl)-N-((1R,2S)-1-(cyclopropylsulfonylcarbamoyl)-2-vinylcyclopropyl)-4-(7-methoxy-2-phenylquinolin-4-yloxy)pyrrolidine-2-carboxamide]
IC90 ([1]; IC90): < 10 nM
IC50 ([1]; read-out: Replicon (IC50)): < 10 nM
IC50 [2]: < 10 nM
IC50 [3]: 10 to 100 nM
IC50 [4]: 10 to 100 nM
Inhibition of NS3 protease activity (self-cleavage) after compound removal [5]: virtually complete inhibition
Duration of inhibition of mutant protease activity after compound removal [6]: at least 24 hours

C=C[C@@H]1C[C@]1(NC(=O)[C@@H]1C[C@@H](Oc2nccc3cc(OC)ccc23)CN1C(=O)[C@H](CCC(=O)C=C(C)C)NC(=O)OC(C)(C)C)C(=O)NS(=O)(=O)C1CC1 [Compound I-96, {1-[2-(1-Cyclopropanesulfonylaminocarbonyl-2-vinyl-cyclopropylcarbamoyl)-4-(6-methoxy-isoquinolin-1-yloxy)-pyrrolidine-1-carbonyl]-6-methyl-4-oxo-hept-5-enyl}-carbamic acid tert-butyl ester]
IC50 [2]: < 10 nM
IC50 [7]: < 10 nM
IC50 [3]: 10 to 100 nM
IC50 [4]: 100 to 1000 nM
IC50 [8]: 10 to 100 nM
Covalent modification of HCV wild type by mass spectrometry [9]: measurable covalent modification
Covalent modification of HCV NS3/4A genotype 1a by mass spectrometry [10]: measurable covalent modification
Covalent modification of HCV NS3/4A genotype 2a by mass spectrometry [11]: measurable covalent modification
Covalent modification of HCV NS3/4A genotype 3a by mass spectrometry [12]: measurable covalent modification
EC90 ([13]; EC90): 10 to 100 nM
EC50 [13]: < 10 nM
